Data: patent US11897865B2, “ABHD12 inhibitors and methods of making and using same” (THE SCRIPPS RESEARCH INSTITUTE, priority 2018, dated 2024)

target: T1, ABHD12 (Mus musculus, UniProt Q99LR1); test: Gel-based competitive ABPP, JJH350 probe vs brain membrane proteome; assay type: biochemical; conditions: 10 μM compound, read-out: % Inhibition @ 10 μM (ABPP gel_JJH350 probe vs brain mem)
T1 construct: from tissue; host or cells: brain membrane proteome
T1 sequence (Q99LR1 1-398): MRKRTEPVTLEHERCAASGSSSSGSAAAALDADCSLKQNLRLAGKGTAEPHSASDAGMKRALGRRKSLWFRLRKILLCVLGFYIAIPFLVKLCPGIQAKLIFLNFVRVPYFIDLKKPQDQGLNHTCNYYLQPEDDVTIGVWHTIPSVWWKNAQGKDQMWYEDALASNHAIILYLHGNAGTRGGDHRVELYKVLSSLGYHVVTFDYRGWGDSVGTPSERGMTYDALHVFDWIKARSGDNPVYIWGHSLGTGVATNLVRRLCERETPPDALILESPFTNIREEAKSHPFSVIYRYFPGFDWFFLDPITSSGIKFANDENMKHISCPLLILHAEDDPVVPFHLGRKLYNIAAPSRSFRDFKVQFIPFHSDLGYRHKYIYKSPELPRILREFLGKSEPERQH
Procedure: Gel-Based Competitive ABPP for In Vitro Inhibitor Treatment of Proteomes:
Gel-based ABPP assays were performed as previously reported (Bachovchin, D. A. et al. Superfamily-wide portrait of serine hydrolase inhibition achieved by library-versus-library screening. Proc. Natl. Acad. Sci. U. S. A. 2010, 107, 20941-20946). Cell or tissue proteomes (50 μL, 1 mg/mL) were treated with either FP-Rh (1 μM final concentration) or JJH350 (2 μM final concentration) for 45 min at 37° C. For FP-Rh labeled samples, the reactions were quenched by adding 20 μL of 4× SDS-PAGE loading buffer. The 30 μL of the quenched samples were loaded on gel for analysis. For (S)-1,3-dioxo-7-(4-phenoxybenzoyl)hexahydroimidazo[1,5-a]pyrazin-2(3H)-yl 4-(4-(prop-2-yn-1-yloxy)phenyl)piperazine-1-carboxylate (JJH350)-labeled samples, copper-catalyzed azide-alkyne cycloaddition (CuAAC) was used for visualizing the labeled proteins following the reported protocol. Briefly, rhodamine-PEG3-N3 (1 μL/reaction, 1.25 mM in DMSO), CuSO4 (1 μL/reaction, 50 mM in H2O), TBTA (3 μL/reaction, 1.7 mM in DMSO/t-BuOH [1:4, v/v]) and tris(2-carboxyethyi)phosphine (TCEP) (1 μL/reaction, 50 mM in H2O, freshly prepared) were premixed. 6 μL of this click reagent mixture was immediately added to each JJH350-labeled samples (50 μL, 1 mg/mL) and incubated for 1 h at room temperature. The reactions were quenched by adding 20 μL of 4× SDS-PAGE loading buffer. The 40 μL of the quenched samples were loaded on a gel for analysis.
After separation by SDS-PAGE (10% acrylamide), samples were visualized by in-gel fluorescence scanning using the ChemiDoc MP system (Bio-Rad). Band intensities were quantified using the Image Lab (5.2.1) software (Bio-Rad).

Row | Compound | inhibition at 10 µM
1 | FC(F)(F)c1ccc(N2CCC(NC(=S)Nc3cccnc3)CC2)nn1 [Example 79, 1-(Pyridin-3-yl)-3-(1-(6-(trifluoromethyl)pyridazin-3-yl)piperidin-4-yl)thiourea] | 0 to 25%
2 | CCCCCc1ccc(Oc2ccnc(N3CCC(NC(=S)Nc4cccnc4)CC3)c2)cc1 [Example 61, 1-(1-(4-(4-Pentylphenoxy)pyridin-2-yl)piperidin-4-yl)-3-(pyridin-3-yl)thiourea] | ≥ 75%
3 | Fc1cc(Cl)ccc1Oc1ccnc(N2CCC(NC(=S)Nc3cccnc3)CC2)c1 [Example 43, 1-(1-(4-(4-Chloro-2-fluorophenoxy)pyridin-2-yl)piperidin-4-yl)-3-(pyridin-3-yl)thiourea] | ≥ 75%
4 | FC(F)(F)CCCOc1ccnc(N2CCC(NC(=S)Nc3cccnc3)CC2)c1 [Example 34, 1-(Pyridin-3-yl)-3-(1-(4-(4,4,4-trifluorobutoxy)pyridin-2-yl)piperidin-4-yl)thiourea] | ≥ 75%
5 | Fc1ccc(COc2ccnc(N3CCC(NC(=S)Nc4cccnc4)CC3)c2)cc1F [Example 42, 1-(1-(4-((3,4-Difluorobenzyl)oxy)pyridin-2-yl)piperidin-4-yl)-3-(pyridin-3-yl)thiourea] | ≥ 75%
6 | FC(F)Oc1ccc(Oc2ccnc(N3CCC(NC(=S)Nc4cccnc4)CC3)c2)cc1 [Example 62, 1-(1-(4-(4-(Difluoromethoxy)phenoxy)pyridin-2-yl)piperidin-4-yl)-3-(pyridin-3-yl)thiourea] | ≥ 75%
7 | S=C(Nc1cccnc1)NC1CCN(c2cc(OCc3ccccc3)ccn2)CC1 [Example 37, 1-(1-(4-(Benzyloxy)pyridin-2-yl)piperidin-4-yl)-3-(pyridin-3-yl)thiourea] | ≥ 75%
8 | CC(C)OC(=O)N1CCC(Oc2ccnc(N3CCC(NC(=S)Nc4cccnc4)CC3)c2)CC1 [Example 36, Isopropyl 4-((2-(4-(3-(pyridin-3-yl)thioureido)piperidin-1-yl)pyridin-4-yl)oxy)piperidine-1-carboxylate] | 50 to 75%
9 | S=C(Nc1cccnc1)NC1CCN(c2ccc(Cl)cn2)CC1 [Example 11, 1-(1-(5-Chloropyridin-2-yl)piperidin-4-yl)-3-(pyridin-3-yl)thiourea] | ≥ 75%
10 | FC(F)(F)c1ccccc1-c1ccnc(N2CCC(NC(=S)Nc3cccnc3)CC2)c1 [Example 24, 1-(pyridin-3-yl)-3-(1-(4-(2-(trifluoromethyl)phenyl)pyridin-2-yl)piperidin-4-yl)thiourea] | 50 to 75%
11 | S=C(Nc1cccnc1)NC1CCN(c2cc(OCC3CC3)ccn2)CC1 [Example 31, 1-(1-(4- (Cyclopropylmethoxy)pyridin-2-yl)piperidin-4-yl)-3-(pyridin-3-yl)thiourea] | ≥ 75%
12 | FC(F)(F)Oc1ccccc1Oc1ccnc(N2CCC(NC(=S)Nc3cccnc3)CC2)c1 [Example 50, 1-(Pyridin-3-yl)-3-(1-(4-(2-(trifluoromethoxy)phenoxy)pyridin-2-yl)piperidin-4-yl)thiourea] | ≥ 75%
13 | S=C(Nc1cccnc1)NC1CCN(c2ncccc2Cl)CC1 [Example 17, 1-(1-(3-Chloropyridin-2-yl)piperidin-4-yl)-3-(pyridin-3-yl)thiourea] | 50 to 75%
14 | COc1ccc(-c2ccnc(N3CCC(NC(=S)Nc4cccnc4)CC3)c2)cc1 [Example 46, 1-(1-(4-(4-Methoxyphenyl)pyridin-2-yl)piperidin-4-yl)-3-(pyridin-3-yl)thiourea] | 0 to 25%
15 | O=C(Nc1cccnc1)NC1CCN(c2ncc(C(F)(F)F)cc2Cl)CC1 [Example 77, 1-(1-(3-Chloro-5-(trifluoromethyl)pyridin-2-yl)piperidin-4-yl)-3-(pyridin-3-yl)urea] | 25 to 50%
16 | FC(F)(F)Oc1ccc(N2CCC(NC(=S)Nc3cccnc3)CC2)nc1 [Example 13, 1-(Pyridin-3-yl)-3-(1-(5-(trifluoromethoxy)pyridin-2-yl)piperidin-4-yl)thiourea] | ≥ 75%
17 | S=C(Nc1cccnc1)NC1CCN(c2cc(-c3ccccc3)ccn2)CC1 [Example 45, 1-(1-(4-Phenylpyridin-2-yl)piperidin-4-yl)-3-(pyridin-3-yl)thiourea] | 25 to 50%
18 | FC1(F)CCC(Oc2ccnc(N3CCC(NC(=S)Nc4cccnc4)CC3)c2)CC1 [Example 35, 1-(1-(4-((4,4-Difluoro-cyclohexyl)oxy)pyridin-2-yl)piperidin-4-yl)-3-(pyridin-3-yl)thiourea] | ≥ 75%
19 | Fc1ccc(-c2ccnc(N3CCC(NC(=S)Nc4cccnc4)CC3)c2)cc1 [Example 47, 1-(1-(4-(4-Fluorophenyl)pyridin-2-yl)piperidin-4-yl)-3-(pyridin-3-yl)thiourea] | ≥ 75%
20 | FC(F)(F)c1cnc(NCCCCCCNC(=S)Nc2cccnc2)c(Cl)c1 [Example 84, 1-(6-((3-Chloro-5-(trifluoromethyl)pyridin-2-yl)amino)hexyl)-3-(pyridin-3-yl)thiourea] | 50 to 75%
21 | FC(F)(F)c1ccccc1Oc1ccnc(N2CCC(NC(=S)Nc3cccnc3)CC2)c1 [Example 53, 1-(Pyridin-3-yl)-3-(1-(4-(2-(trifluoromethyl)phenoxy)pyridin-2-yl)piperidin-4-yl)thiourea] | ≥ 75%
22 | FC(F)(F)Oc1ccc(Oc2ccnc(N3CCC(NC(=S)Nc4cccnc4)CC3)c2)c(Cl)c1 [Example 55, 1-(1-(4-(2-Chloro-4-(trifluoromethoxy)phenoxy)pyridin-2-yl)piperidin-4-yl)-3-(pyridin-3-yl)thiourea] | ≥ 75%
23 | CN(C(=S)Nc1cccnc1)C1CCN(c2ncc(C(F)(F)F)cc2Cl)CC1 [Example 82, 1-(1-(3-Chloro-5-(trifluoromethyl)pyridin-2-yl)piperidin-4-yl)-1-methyl-3-(pyridin-3-yl)thiourea] | 50 to 75%

same assay, conditions: read-out: IC50 (ABPP gel_JJH350 probe vs brain mem)

Row | Compound | IC50
24 | FC(F)(F)Oc1cc(Oc2ccnc(N3CCC(NC(=S)Nc4cccnc4)CC3)c2Cl)ccc1Cl [Example 63, 1-(1-(3-Chloro-4-(4-chloro-3-(trifluoromethoxy)phenoxy)pyridin-2-yl)piperidin-4-yl)-3-(pyridin-3-yl)thiourea] | ≤ 100 nM
25 | S=C(Nc1cccnc1)NC1CCN(c2cc(OCc3ccccc3)ccn2)CC1 [Example 37, 1-(1-(4-(Benzyloxy)pyridin-2-yl)piperidin-4-yl)-3-(pyridin-3-yl)thiourea] | 1000 to 25000 nM
26 | S=C(Nc1cccnc1)NC1CCN(c2cc(OCC3CC3)ccn2)CC1 [Example 31, 1-(1-(4- (Cyclopropylmethoxy)pyridin-2-yl)piperidin-4-yl)-3-(pyridin-3-yl)thiourea] | 1000 to 25000 nM
27 | Fc1cc(Oc2ccnc(N3CCC(NC(=S)Nc4cccnc4)CC3)c2Cl)ccc1OC(F)(F)F [Example 64, 1-(1-(3-Chloro-4-(3-fluoro-4-(trifluoromethoxy)phenoxy)pyridin-2-yl)piperidin-4-yl)-3-(pyridin-3-yl)thiourea] | ≤ 100 nM
28 | S=C(Nc1cccnc1)NC1CCN(c2cc(-c3ccccc3)ccn2)CC1 [Example 45, 1-(1-(4-Phenylpyridin-2-yl)piperidin-4-yl)-3-(pyridin-3-yl)thiourea] | 1000 to 25000 nM
29 | Cc1cc(OC(F)(F)F)ccc1Oc1ccnc(N2CCC(NC(=S)Nc3cccnc3)CC2)c1Cl [Example 73, 1-(1-(3-Chloro-4-(2-methyl-4-(trifluoromethoxy)phenoxy)pyridin-2-yl)piperidin-4-yl)-3-(pyridin-3-yl)thiourea] | ≤ 100 nM
30 | Cc1ccc(Oc2ccnc(N3CCC(NC(=S)Nc4cccnc4)CC3)c2)cc1 [Example 75, 1-(Pyridin-3-yl)-3-(1-(4-(p-tolyloxy)pyridin-2-yl)piperidin-4-yl)thiourea] | 1000 to 25000 nM
31 | Cc1cc(Oc2ccnc(N3CCC(NC(=S)Nc4cccnc4)CC3)c2Cl)ccc1F [Example 70, 1-(1-(3-Chloro-4-(4-fluoro-3-methylphenoxy)pyridin-2-yl)piperidin-4-yl)-3-(pyridin-3-yl)thiourea] | 100 to 1000 nM
